Reference: US6204293A, “Inhibitors of protein isoprenyl transferases” (University of Pittsburgh, priority 1998, dated 2001)
Where a name gives a salt, the structure may show the parent alone. Read-outs that look alike come from different tables or passages of the source. One block for each compound: values may come before it.

Molecular target: T1, Rat brain protein farnesyltransferase (Rattus norvegicus, UniProt Q02293+Q04631)
T1 construct: Rat brain protein farnesyltransferase activity is measured; from tissue; host or cells: rat brain
T1 sequence (Q02293 whole entry, one chain of several): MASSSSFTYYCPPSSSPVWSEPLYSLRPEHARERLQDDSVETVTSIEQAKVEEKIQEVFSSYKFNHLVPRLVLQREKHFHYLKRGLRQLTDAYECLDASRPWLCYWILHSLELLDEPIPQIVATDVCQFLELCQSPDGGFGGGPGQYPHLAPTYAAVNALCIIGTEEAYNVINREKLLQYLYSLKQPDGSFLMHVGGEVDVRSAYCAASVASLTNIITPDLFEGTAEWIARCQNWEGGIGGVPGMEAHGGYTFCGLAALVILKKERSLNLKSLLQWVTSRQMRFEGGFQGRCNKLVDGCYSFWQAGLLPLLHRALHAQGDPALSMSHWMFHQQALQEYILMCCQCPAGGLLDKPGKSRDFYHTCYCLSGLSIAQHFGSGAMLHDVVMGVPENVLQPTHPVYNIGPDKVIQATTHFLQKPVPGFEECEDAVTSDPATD
Experiment: % inhibition of farnesylation, scintillation proximity assay with biotin-K Ras B fragment
Type: biochemical
Conditions: for inhibition at 1 µM: read-out: % inhibition at 1 × 10^-6 M; for % inhibition at 1 × 10^-5 M: Table 1
Outline: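 Scintillation proximity read-out of farnesylation, using a biotinylated K Ras B fragment (0.1 mM final) in place of biotin-lamin. Enzyme purified from rat brain; results given as % inhibition.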

[1] = read-out: % inhibition at 0.1 μM (*), Table 6, * footnote 0.1 μM (title: 0.1 mM)
[2] = read-out: % inhibition at 1 × 10^-7 M
[3] = read-out: % inhibition at 1 × 10^-7 M, Table 3, 1 × 10^-7 M
[4] = read-out: % inhibition at 1 × 10^-8 M, Table 4, 1 × 10^-8 M
[5] = read-out: % inhibition at 1 × 10^-8 M

inhibition at 0.1 µM [1]: 60%
Compound: CCCCC(OCc1ccc(C(=O)N[C@@H](CCSC)C(=O)O)c(-c2ccccc2C)c1)c1sc(C)nc1C (stereo partly drawn) [Example 1098, N-[4-1-(2,4-dimethylthiazol-5-yl)pentyloxy)methyl-2-(2-methylphenyl)benzoyl]methionine lithium salt]

Compound: CSCC[C@H](NC(=O)c1ccc(CCc2cccc(-c3ccccc3)c2)cc1-c1ccccc1C)C(=O)[O-].[Li+] [Example 793]
% inhibition at 1 × 10^-6 M (Table 2, 1 × 10^-6 M): 94%

Compound: CSCC[C@H](NC(=O)c1ccc(COCc2cnco2)cc1-c1ccccc1C)C(=O)O [Example 891, N-[4-(oxazol-5-ylmethoxymethyl)-2-(2-methylphenyl)benzoyl]methionine lithium salt]
inhibition at 0.1 µM [2]: 94%

% inhibition at 1 × 10^-6 M (Table 2, 1 × 10^-6 M): 53%
Compound: CSCC[C@H](NC(=O)c1ccc(/C=C/c2ccccc2)cc1-c1ccccc1C)C(=O)O [Example 791]

% inhibition at 0.1 μM (*) (Table 6, * footnote 0.1 μM (title: 0.1 mM)): 69%
Compound: CCCCC(OCc1ccc(C(=O)N[C@@H](CCSC)C(=O)[O-])c(-c2ccccc2C)c1)C1CCNCC1.[Li+] (stereo partly drawn) [Example 1288]

Compound: CSCC[C@H](NC(=O)c1ccc(OCCCc2ccccc2)cc1-c1ccccc1C)C(=O)O [Example 879, N-[4-(3-phenylpropoxy)-2-(2-methylphenyl)benzoyl]methionine, lithium salt]
inhibition at 1 µM: 95%

% inhibition at 1 × 10^-5 M: 76%
Compound: CSCC[C@H](NC(=O)c1ccc(CNc2cccc(O)c2)cc1-c1ccccc1)C(=O)O [Example 676]

inhibition at 0.1 µM [3]: 89%
Compound: CSCC[C@H](NC(=O)c1ccc(CSc2ccc(C)cc2C)cc1-c1ccccc1C)C(=O)O [Example 741]

Compound: CSCC[C@H](NC(=O)c1ccc(CSCC2CCCCC2)cc1-c1ccccc1C)C(=O)O [Example 559, N-[4-cyclohexylmethylthiomethyl-2-(2-methylphenyl)benzoyl]methionine, lithium salt]
inhibition at 0.1 µM [2]: 96%

% inhibition at 1 × 10^-5 M: 69%
Compound: CSCC[C@H](NC(=O)c1ccc(CNCc2cc(Cl)cc(Cl)c2)cc1-c1ccccc1)C(=O)O [Example 712]

% inhibition at 1 × 10^-6 M (Table 2, 1 × 10^-6 M): 90%
Compound: CSCC[C@H](NC(=O)c1ccc(CN2CCC[C@H]2COCc2ccccc2)cc1-c1ccccc1C)C(=O)O [Example 824]

inhibition at 0.01 µM [4]: 79%
Compound: CSCC[C@H](NC(=O)c1ccc(CO[C@H](CSC)CC2CCCCC2)cc1-c1ccccc1C)C(=O)O [Example 882, N-[4-(3-Cyclohexyl-1-methylthiopropan-2-yl)oxymethyl-2-(2-methylphenyl)benzoyl]methionine lithium salt]

% inhibition at 1 × 10^-7 M (Table 3, 1 × 10^-7 M): 94%
Compound: CCCC[C@H](CC1CCCCC1)NCc1ccc(C(=O)N[C@@H](CCSC)C(=O)O)c(-c2ccccc2C)c1 [Example 615]

Compound: CSCC[C@H](NC(=O)c1ccc(COCc2cnc(-c3cccc(Cl)c3)o2)cc1-c1ccccc1C)C(=O)O [Example 893, N-[4-(2-(3-chlorophenyl)oxazol-5-ylmethoxymethyl)-2-(2-methylphenyl)benzoyl]methionine lithium salt]
inhibition at 0.1 µM [2]: 87%

% inhibition at 1 × 10^-5 M: 83%
Compound: CSCC[C@H](NC(=O)c1ccc(CNCCN2CCCCC2)cc1-c1ccccc1)C(=O)O [Example 366]

inhibition at 0.01 µM [4]: 79%
Compound: CCCCC(Cc1ccccc1Cl)OCc1ccc(C(=O)N[C@@H](CCSC)C(=O)O)c(-c2ccccc2C)c1 (stereo partly drawn) [Example 943, N-[4-(1-(2-chlorophenyl)hexan-2-yloxymethyl)-2-(2-methylphenyl)benzoyl]methioninelithium salt]

% inhibition at 1 × 10^-6 M (Table 2, 1 × 10^-6 M): 81%
Compound: CSCC[C@H](NC(=O)c1ccc(CNc2ccc(S(=O)(=O)Nc3onc(C)c3C)cc2)cc1-c1ccccc1C)C(=O)O [Example 726]

% inhibition at 1 × 10^-8 M (Table 4, 1 × 10^-8 M): 95%
Compound: CSCC[C@H](NC(=O)c1ccc(CN(CCC2CCCCC2)Cc2cncs2)cc1-c1ccccc1C)C(=O)O [Example 986]

% inhibition at 1 × 10^-6 M (Table 2, 1 × 10^-6 M): 80%
Compound: CSCC[C@H](NC(=O)c1ccc(CN(Cc2ccoc2)C(C)C)cc1-c1ccccc1C)C(=O)O [Example 832]

% inhibition at 1 × 10^-6 M (Table 2, 1 × 10^-6 M): 26%
Compound: CSCC[C@H](NC(=O)c1ccc(CN(C(C)C)C2(CC3CCCCC3)CCC2)cc1-c1ccccc1C)C(=O)O [Example 332]

Compound: CSCC[C@H](NC(=O)c1ccc(COCCC2CCCCC2)cc1-c1ccccc1C)C(=O)O [Example 594, N-[4-(2-cyclohexylethoxymethyl)-2-(2-methylphenyl)benzoyl]methionine lithium salt]
inhibition at 0.1 µM [2]: 95%

% inhibition at 1 × 10^-6 M (Table 2, 1 × 10^-6 M): 68%
Compound: CSCC[C@H](NC(=O)c1ccc(CNC(CO)Cc2ccc(Cl)cc2)cc1-c1ccccc1)C(=O)O (stereo partly drawn) [Example 662]

% inhibition at 1 × 10^-6 M (Table 2, 1 × 10^-6 M): 84%
Compound: CSCC[C@H](NC(=O)c1ccc(CN(CC23CC4CC(CC(C4)C2)C3)c2ccccc2)cc1-c1ccccc1C)C(=O)O [Example 510]

Compound: CCCCC(CCCC)OCc1ccc(C(=O)N[C@@H](CCSC)C(=O)O)c(-c2ccccc2C)c1 [Example 942, N-[4-(nonan-5-yloxymethyl)-2-(2-methylphenyl)benzoyl]methionine lithium salt]
inhibition at 0.01 µM [5]: 58%

inhibition at 0.01 µM (read-out: % inhibition at 0.01 μM (**), Table 6, ** footnote 0.01 μM (title: 0.01 mM)): 89%
Compound: CSCC[C@H](NC(=O)c1ccc(CO[C@@H](CC2CCCCC2)C(=O)N2CCSCC2)cc1-c1ccccc1C)C(=O)O [Example 1054, N-[4-(3-cyclohexyl-N-thiomorpholin-4-ylpropion-2-yloxymethyl)-2-(2-methylphenyl)benzoyl]methionine, lithium salt]

% inhibition at 1 × 10^-8 M (Table 4, 1 × 10^-8 M): 68%
Compound: CSCC[C@H](NC(=O)c1ccc(CN(Cc2cncs2)S(=O)(=O)c2ccc(C)cc2)cc1-c1ccccc1C)C(=O)O [Example 877]

% inhibition at 1 × 10^-8 M (Table 4, 1 × 10^-8 M): 84%
Compound: CCCCN(CCc1ccccc1)Cc1ccc(C(=O)N[C@@H](CCSC)C(=O)O)c(-c2ccccc2C)c1 [Example 928]

% inhibition at 1 × 10^-7 M (Table 3, 1 × 10^-7 M): 78%
Compound: CSCC[C@H](NC(=O)c1ccc(/C=C/c2ccc(Oc3ccccc3Cl)cc2)cc1-c1ccccc1C)C(=O)O [Example 854]

Compound: CSCC[C@H](NC(=O)c1ccc(COCc2ccc(-c3ccc(C(F)(F)F)cc3)o2)cc1-c1ccccc1C)C(=O)O [Example 445, N-[4-(5-(4-trifluoromethylphenyl)furan-2-ylmethoxymethyl)-2-(2-methylphenyl)benzoyl]methionine lithium salt]
inhibition at 0.1 µM [2]: 94%

Compound: CSCC[C@H](NC(=O)c1ccc(COCc2ccc(-c3ccc(C(C)C)cc3)o2)cc1-c1ccccc1C)C(=O)O [Example 820, N-[4-(5-(4-isopropylphenyl)furan-2-ylmethoxymethyl)-2-(2-methylphenyl)benzoyl]methionine lithium salt]
inhibition at 0.01 µM [5]: 66%

% inhibition at 1 × 10^-8 M (Table 4, 1 × 10^-8 M): 85%
Compound: CSCC[C@H](NC(=O)c1ccc(CCc2ccc(Oc3ccc(Cl)cc3)cc2)cc1-c1ccccc1C)C(=O)O [Example 860]

inhibition at 1 µM (Table 2, 1 × 10^-6 M): 99%
Compound: CCOC[C@H](CC1CCCCC1)OCc1ccc(C(=O)N[C@@H](CCSC)C(=O)O)c(-c2ccccc2C)c1 [Example 525, N-[4-(3-Cyclohexyl-1-ethoxypropan-2-yl)oxymethyl-2-(2-methylphenyl)benzoyl]methionine lithium salt]

% inhibition at 1 × 10^-6 M (Table 2, 1 × 10^-6 M): 74%
Compound: CSCC[C@H](NC(=O)c1ccc(NC(=O)[C@@H]2CSCN2)cc1-c1ccccc1)C(=O)O [Example 165]

% inhibition at 1 × 10^-6 M (Table 2, 1 × 10^-6 M): 82%
Compound: CSCC[C@H](NC(=O)c1ccc(CNC(C)(C)Cc2ccccc2)cc1-c1ccccc1C)C(=O)O [Example 307]

inhibition at 1 µM (Table 2, 1 × 10^-6 M): 93%
Compound: CSCC[C@H](NC(=O)c1ccc(COC2CCN(Cc3ccccc3)C2)cc1-c1ccccc1C)C(=O)O (stereo partly drawn) [Example 987, N-[4-(1-benzylpyrrolidin-3-oxymethyl)-2-(2-methylphenyl)benzoyl]methionine]

inhibition at 1 µM (Table 2, 1 × 10^-6 M): 97%
Compound: CSCC[C@H](NC(=O)c1ccc(OC/C=C(\C)CCC=C(C)C)cc1-c1ccccc1C)C(=O)O [Example 546, N-[4-geranyloxy-2-(2-methylphenyl)benzoyl]methionine, lithium salt]

inhibition at 0.1 µM [1]: 90%
Compound: CSCC[C@H](NC(=O)c1ccc(COCc2ccccc2CO)cc1-c1ccccc1C)C(=O)O [Example 1043, N-[4-(2-hydroxymethylbenzyloxymethyl)-2-(2-methylphenyl)benzoyl]methionine,lithium salt]

% inhibition at 1 × 10^-7 M (Table 3, 1 × 10^-7 M): 71%
Compound: CCCCS(=O)(=O)N(Cc1ccc(C(=O)N[C@@H](CCSC)C(=O)O)c(-c2ccccc2C)c1)[C@H](CSCC)CC1CCCCC1 [Example 950]

% inhibition at 1 × 10^-7 M (Table 3, 1 × 10^-7 M): 79%
Compound: CCSC[C@H](CC1CCCCC1)N(Cc1ccc(C(=O)N[C@@H](CCSC)C(=O)O)c(-c2ccccc2C)c1)C(C)=O [Example 947]

% inhibition at 1 × 10^-6 M (Table 2, 1 × 10^-6 M): 92%
Compound: COC(=O)[C@H](CCSC)NC(=O)c1ccc(NC(=O)[C@@H]2CSCN2)cc1-c1ccccc1.Cl [Example 164]

% inhibition at 1 × 10^-6 M (Table 2, 1 × 10^-6 M): 91%
Compound: Cc1ccccc1-c1cc(CCc2ccc(Oc3ccccc3)cc2)ccc1C(=O)N[C@@H](CC[S+](C)[O-])C(=O)O (stereo partly drawn) [Example 463]

inhibition at 0.1 µM [1]: 96%
Compound: CSCC[C@H](NC(=O)c1ccc(CCC(=O)OC2CCCCC2)cc1-c1ccccc1C)C(=O)O [Example 1152, N-[4-(cyclohexyloxycarbonylethyl)-2-(2-methylphenyl)benzoyl]methionine]

Compound: CSCC[C@H](NC(=O)c1ccc(COCCc2ccc(-c3ccc(F)cc3)o2)cc1-c1ccccc1C)C(=O)O [Example 535, N-[4-(5-(4-fluorophenyl)furan-2-ylethoxymethyl)-2-(2-methylphenyl)benzoyl]methionine lithium salt]
inhibition at 0.1 µM [2]: 89%

inhibition at 0.1 µM [3]: 72%
Compound: CSCC[C@H](NC(=O)c1ccc(COc2ccc3ccccc3c2)cc1-c1ccccc1C)C(=O)O [Example 573, N-[4-(naphth-2-yloxymethyl)-2-(2-methylphenyl)benzoyl]methionine]

% inhibition at 1 × 10^-6 M (Table 2, 1 × 10^-6 M): 98%
Compound: CCS(=O)(=O)C[C@H](CC1CCCCC1)NCc1ccc(C(=O)N[C@@H](CCSC)C(=O)O)c(-c2ccccc2C)c1 [Example 620]
